# Data reported in patent US20220235032A1 (GENFLEET THERAPEUTICS (SHANGHAI) INC., priority 2019, published 2022).
# Experiments:
# U937 cells = assay: Inhibitory activity against programmed necroptosis of U937 cells induced by TNF-α and Q-VD-Oph (CellTiter-Glo); format: cell-based; details: Celltiter-Glo survival rate
# Description: The U937 cell strain which was used in the following Testing Examples was derived from ATCC, No.: CRL-1593.2, batch No.: 63479999, culture medium: RPMI-1640+10% FBS.
# The compound to be tested was dissolved in DMSO, and diluted with DMSO to a series of gradient concentrations. The U937 cells were inoculated in a 384-well plate at 5000/well. The compound at respective concentration was added to each of the wells, and was mixed with the cells homogeneously. Human TNF-α and Q-VD-Oph were added simultaneously to induce programmed necroptosis of the cells. The cells were placed in the incubator at 37° C. and 5% CO2 for further culture of 48 h. Celltiter-Glo reagent was used for detection. After adequate pyrolysis reaction, the chemiluminescence readout value was recorded by a microplate reader. The survival rate was calculated from the detection results using the equation as follows: SR (%)=(RLU compound−RLU blank)/(RLU high control−RLU blank)×100%. The survival rate was plotted against the final concentration of respective compound using a 4-parameter fitting to calculate the inhibitory C50 of the compound against programmed necroptosis of cells induced by TNF-α.
# RIPK1 enzyme = target: T1, RIPK1 enzyme (Homo sapiens, UniProt Q13546); assay: Inhibitory activity of the compounds against RIPK1 enzyme (P33-ATP, MBP substrate); format: biochemical; details: 36 nM RIPK1, substrate MBP, 10 mM magnesium ion, P33-labeled ATP, 2 h room temperature; read-out: RIPK1 enzyme inhibitory activety IC50
# T1 construct: purchased Eurofins 16-022
# T1 sequence (Q13546 1-671): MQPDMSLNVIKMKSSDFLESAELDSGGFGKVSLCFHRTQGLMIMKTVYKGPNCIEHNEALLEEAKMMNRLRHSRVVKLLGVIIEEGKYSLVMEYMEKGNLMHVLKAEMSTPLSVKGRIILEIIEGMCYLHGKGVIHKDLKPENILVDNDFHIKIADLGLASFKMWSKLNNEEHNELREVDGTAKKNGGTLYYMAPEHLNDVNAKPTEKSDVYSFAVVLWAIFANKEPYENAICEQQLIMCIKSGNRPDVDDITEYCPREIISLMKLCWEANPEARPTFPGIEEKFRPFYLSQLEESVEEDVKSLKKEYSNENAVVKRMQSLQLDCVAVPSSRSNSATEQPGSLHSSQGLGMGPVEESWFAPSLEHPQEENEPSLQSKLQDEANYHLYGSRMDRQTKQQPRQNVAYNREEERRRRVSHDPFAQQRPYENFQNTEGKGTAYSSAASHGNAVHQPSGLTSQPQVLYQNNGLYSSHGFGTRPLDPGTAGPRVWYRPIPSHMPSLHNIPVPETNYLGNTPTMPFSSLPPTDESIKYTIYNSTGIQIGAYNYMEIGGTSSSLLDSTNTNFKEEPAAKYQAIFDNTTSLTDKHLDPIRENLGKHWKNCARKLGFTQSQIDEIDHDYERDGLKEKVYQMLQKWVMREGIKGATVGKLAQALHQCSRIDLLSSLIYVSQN
# Description: The compound to be tested was dissolved in DMSO, and diluted in 3.16 folds with DMSO to a series of gradient concentrations. Then, the solution was diluted with MOPS buffer pH 7.0 to the final concentration. The resultant working solution was mixed with 36 nM RIPK1 (final concentration) and the substrate MBP homogeneously. Thereafter, 10 mM magnesium ion and P^33 isotopically labeled ATP were added for the reaction. After the reaction was carried out at room temperature for 2 h, phosphoric acid was added to terminate the reaction. The final reaction system was tested using a liquid scintillation counter after treatment. The […] for the tested result and a positive control group were converted to activity percentage. The activity percentage was plotted against the final concentration of respective compound using a 4-parameter fitting to obtain the inhibitory IC50 of the compound against RIPK1 enzyme.
# [1] = human TNF-α + Q-VD-Oph induced necroptosis, 48 h
IC50 (RIPK1 enzyme) [nM],Structure (SMILES),"IC50 (U937 cells; Homo sapiens, U-937, 48 h) [nM]",IC50 (U937 cells; [1]) [nM]
95,NC(=O)c1cc(N2CC3CC(C(=O)N4N=CCC4c4ccccc4)CC3C2)ncn1 (stereo not drawn) [Compound Z-10],153,
50,"N#Cc1cc(N2CC[C@H](C(=O)N3N=CC[C@H]3c3cncc(F)c3)C3(CC3)C2)ncn1 (single isomer, unassigned) [Compound Z-48-d]",7,
29,"N#Cc1cc(N2CC3CC(C(=O)N4N=CCC4c4ccccc4)CC3C2)ncn1 (single isomer, unassigned) [Compound Z-9-1]",157,
123,"COc1cc(N2CC3CC(C(=O)N4N=CCC4c4ccccc4)CC3C2)ncn1 (stereo not drawn) [Compound Z-12, (2-(6-methoxypyrimidin-4-yl)octahydrocyclopenta[c]pyrrol-5-yl)(5-phenyl-4,5-dihydro-1H-pyrazol-1-yl) ketone]",,
,"Cc1nnc(N2CCC(C(=O)N3N=CCC3c3cc(F)cc(F)c3)C3(CC3)C2)o1 (stereo not drawn) [Compound Z-63-2, (5-(3,5-difluorophenyl)-4,5-dihydro-1H-pyrazol-1-yl)(5-(5-methyl-1,3,4-oxadizol-2-yl)-5-aza-spiro[2.5]octane-8-yl) ketone]",,21
,"COc1nccc(N2C[C@H]3C[C@H](C(=O)N4N=CC[C@@H]4c4ccccc4)C[C@H]3C2)n1 (single isomer, unassigned) [Compound Z-37-2]",,22
,"CNC(=O)c1cc(N2CCC(C(=O)N3N=CCC3c3cc(F)cc(F)c3)CC23CC3)ncn1 (stereo not drawn) [Compound Z-70-a, 6-(7-(5-(3,5-difluorophenyl)-4,5-dihydro-11H-pyrazole-1-carbonyl)-4-aza-spiro[2.5]oct-4-yl)-N-methylpyrimidine-4-carboxamide]",,21
,"NC(=O)c1cc(N2CC3CC(C(=O)N4N=CCC4c4cc(F)ccc4F)CC3C2)ncn1 (stereo not drawn) [Compound Z-20, 6-(5-(5-(2,5-difluorophenyl)-4,5-dihydro-1H-pyrazole-1-carbonyl)hexahydrocyclopenta[c]pyrrol-2(1H)-yl)pyrimidine-4-carboxamide]",272,
,"Nc1nc(N2CC3CC(C(=O)N4N=CCC4c4ccccc4)CC3C2)ncc1F (stereo not drawn) [Compound Z-14, (2-(4-amino-5-fluoropyrimidin-2-yl)octahydrocyclopenta[c]pyrrol-5-yl)(5-phenyl-4,5-dihydro-1H-pyrazol-1-yl) ketone]",165,
,"NC(=O)c1ccnc(N2CC3CC(C(=O)N4N=CCC4c4cncc(F)c4)CC3C2)n1 (racemic) [Compound Z-34, 2-(5-(5-(5-fluoropyridin-3-yl)-4,5-dihydro-1H-pyrazole-1-carbonyl)hexahydrocyclopenta[c]pyrrol-2(1H)-yl)pyrimidine-4-carboxamide]",380,
,"COc1nccc(N2CCC(C(=O)N3N=CCC3c3ccccc3)C3(CC3)C2)n1 (racemic) [Compound Z-41-1, (5-(2-methoxypyrimidin-4-yl)-5-aza-spiro[2.5]oct-8-yl)(5-phenyl-4,5-dihydro-1H-pyrazol-1-yl) ketone]",5,
,"NC(=O)c1ccnc(N2CC3CC(C(=O)N4N=CCC4c4cc(F)cc(F)c4)CC3C2)n1 (stereo not drawn) [Compound Z-18, 2-(5-(5-(3,5-difluorophenyl)-4,5-dihydro-1H-pyrazole-1-carbonyl)hexahydrocyclopenta [c]pyrrol-2(1H)-yl)pyrimidine-4-carboxamide]",94,
,"Nc1nc(N2CC3CC(C(=O)N4N=CCC4c4cncc(F)c4)CC3C2)ncc1F (stereo not drawn) [Compound Z-30, (2-(4-amino-5-fluoropyrimidin-2-yl)octahydrocyclopenta[c]pyrrol-5-yl)(5-(5-fluoropyridin-3-yl)-4,5-dihydro-1H-pyrazol-1-yl) ketone]",449,
,"N#Cc1ccnc(N2C[C@H]3C[C@@H](C(=O)N4N=CC[C@@H]4c4cc(F)cc(F)c4)C[C@H]3C2)n1 (single isomer, unassigned) [Compound Z-32-4]",,61
,"NC(=O)c1cc(N2CC3CC(C(=O)N4N=CCC4c4cc(F)cc(F)c4)CC3C2)ncn1 (stereo not drawn) [Compound Z-17, 6-(5-(5-(3,5-difluorophenyl)-4,5-dihydro-1H-pyrazole-1-carbonyl)hexahydrocyclopenta[c]pyrrol-2(1H)-yl)pyrimidine-4-carboxamide]",248,
,"N#Cc1cc(N2C[C@H]3C[C@@H](C(=O)N4N=CC[C@@H]4c4cc(F)cc(F)c4)C[C@H]3C2)ncn1 (single isomer, unassigned) [Compound Z-38-4]",,82
,"NC(=O)c1cc(N2CCC(C(=O)N3N=CCC3c3cc(F)ccc3F)C3(CC3)C2)ncn1 (racemic) [Compound Z-53-2, 6-(8-(5-(2,5-difluorophenyl)-4,5-dihydro-1H-pyrazole-1-carbonyl)-5-aza-spiro[2.5]oct-5-yl)pyrimidine-4-carboxamide]",,331
,"NC(=O)c1cc(N2CCC(C(=O)N3N=CCC3c3cncc(F)c3)CC23CC3)ncn1 (stereo not drawn) [Compound Z-67, 6-(7-(5-(5-fluoropyridin-3-yl)-4,5-dihydro-1H-pyrazole-1-carbonyl)-4-aza-spiro[2.5]oct-4-yl)pyrimidine-4-carboxamide]",115,
63,"COc1nccc(N2CC3CC(C(=O)N4N=CCC4c4ccccc4)CC3C2)n1 (stereo not drawn) [Compound Z-13, (2-(2-methoxypyrimidin-4-yl)octahydrocyclopenta[c]pyrrol-5-yl)(5-phenyl-4,5-dihydro-1H-pyrazol-1-yl) ketone]",146,
42,"N#Cc1cc(N2CCC(C(=O)N3N=CCC3c3cc(F)cc(F)c3)C3(CC3)C2)ncn1 (single isomer, unassigned) [Compound Z-25-2]",1,
,"N#Cc1cc(N2CCC(C(=O)N3CCC(c4cc(F)cc(F)c4)=N3)C3(CC3)C2)ncn1 (racemic) [Compound Z-25, 6-(8-(3-(3,5-difluorophenyl)-4,5-dihydro-1H-pyrazole-1-carbonyl)-5-aza-spiro[2.5]oct-5-yl)pyrimidine-4-carbonitrile]",,4
168,"N#Cc1cc(N2CC3CC(C(=O)N4N=CCC4c4ccccc4)CC3C2)ncn1 (stereo not drawn) [Compound Z-72, 6-(5-(5-phenyl-4,5-dihydro-1H-pyrazole-1-carbonyl)hexahydrocyclopenta[C]pyrrol-2(1H)-yl)pyrimidine-4-carbonitrile]",30,
,"N#Cc1cc(N2CCC(C(=O)N3N=CCC3c3cc(F)ccc3F)C3(CC3)C2)ncn1 (racemic) [Compound Z-52-1, 6-(8-(5-(2,5-difluorophenyl)-4,5-dihydro-1H-pyrazole-1-carbonyl)-5-aza-spiro[2.5]oct-5-yl)pyrimidine-4-carbonitrile]",,4
89,"N#Cc1cc(N2CC3CC(C(=O)N4N=CCC4c4cc(F)cc(F)c4)CC3C2)ncn1 (stereo not drawn) [Compound Z-11, 6-(5-(5-(3,5-difluorophenyl)-4,5-dihydro-1H-pyrazole-1-carbonyl)hexahydrocyclopenta[C]pyrrol-2(1H)-yl)pyrimidine-4-carbonitrile]",138,
,"NC(=O)c1ccnc(N2C[C@@H]3CC(C(=O)N4N=CC[C@@H]4c4cc(F)cc(F)c4)C[C@H]3C2)n1 (single isomer, unassigned) [Compound Z-18-4]",,62
,"N#Cc1cc(N2CC3CCC(C2)C3C(=O)N2N=CCC2c2ccccc2)ncn1 (single isomer, unassigned) [Compound Z-3, 6-(8-(5-phenyl-4,5-dihydro-1H-pyrazole-1-carbonyl)-3-azabicyclo[3.2.1]oct-3-yl)pyrimidine-4-carbonitrile]",,322
